What all share (type): functional
One assay deals with Escherichia coli. Nature of the assay: In vitro evaluation of antimicrobial activity against Escherichia coli EC14 strain.
A further assay relates to Enterobacter cloacae. Nature of the assay: In vitro evaluation of antimicrobial activity against Enterobacter cloacae EB5 strain.
The test system of a further assay is Haemophilus influenzae. Nature of the assay: In vitro antimicrobial activity against Haemophilus influenzae C.L. strain.
A further assay concerns Klebsiella. The assay is described as follows: In vitro antimicrobial activity against Klebsiella X26 strain.
The subject of assay [1] is Pseudomonas aeruginosa. The assay is described as follows: Antimicrobial activity against Pseudomonas PS18 strain.
The test system of assay [2] is Pseudomonas aeruginosa. The assay is described as follows: In vitro antimicrobial activity against Pseudomonas X239 strain.
Assay [3] has as its system Staphylococcus epidermidis. The assay is described as follows: In vitro antimicrobial activity against Staphylococcus epidermidis 222 strain.
Assay [4] has as its system Staphylococcus epidermidis. Nature of the assay: In vitro antimicrobial activity against Staphylococcus epidermidis 270 strain.
Assay [5] deals with Staphylococcus aureus. Nature of the assay: In vitro antimicrobial activity against Staphylococcus aureus S13E strain.
Assay [6] relates to Staphylococcus aureus. The assay is described as follows: In vitro antimicrobial activity against Staphylococcus aureus X400 strain.
For another assay, the system named is Streptococcus pneumoniae. The assay is described as follows: In vitro antimicrobial activity against Streptococcus pneumoniae PARK strain.
The subject of assay [7] is Staphylococcus aureus. The assay is described as follows: In vitro antimicrobial activity against Staphylococcus aureus X1.1 strain.

For `Cc1cnc(SC2=C(C(=O)[O-])N3C(=O)[C@@H](NC(=O)/C(=N/OCCF)c4csc(N)n4)[C@H]3CC2)s1.[Na+]`, the MIC against Escherichia coli was 0.5 µg/mL; with Enterobacter cloacae, 2 µg/mL; against Haemophilus influenzae, under 0.008 µg/mL; with Klebsiella, 0.03 µg/mL; in the assay on Pseudomonas aeruginosa [1] it was 32 µg/mL; in the assay on Pseudomonas aeruginosa [2] it was 64 µg/mL. Besides, the MIC in assay [3] is 1 µg/mL; in [4], 4 µg/mL; against Staphylococcus aureus [5], 32 µg/mL; in the assay on Staphylococcus aureus [6], 128 µg/mL; against Streptococcus pneumoniae it was under 0.008 µg/mL; in the assay on Staphylococcus aureus [7], 0.5 µg/mL.

`CC(=O)c1sc(SC2=C(C(=O)[O-])N3C(=O)[C@@H](NC(=O)/C(=N/OCCF)c4csc(N)n4)[C@H]3CC2)nc1C.[Na+]`: the MIC in the assay with Escherichia coli is 1 µg/mL; against Enterobacter cloacae, 8 µg/mL; against Haemophilus influenzae it was 0.06 µg/mL; with Klebsiella it was 0.125 µg/mL; in the assay on Pseudomonas aeruginosa [1] it was over 128 µg/mL; with Pseudomonas aeruginosa [2], over 128 µg/mL. Further, the MIC is 2 µg/mL in assay [3]; 8 µg/mL in [4]; 32 µg/mL with Staphylococcus aureus [5]; 128 µg/mL against Staphylococcus aureus [6]; under 0.008 µg/mL with Streptococcus pneumoniae; 0.5 µg/mL with Staphylococcus aureus [7].

In the case of `Nc1nc(/C(=N\OCCF)C(=O)N[C@@H]2C(=O)N3C(C(=O)[O-])=C(Sc4nc(-c5ccccc5)cs4)CC[C@H]23)cs1.[Na+]`, the MIC against Escherichia coli was determined as 0.25 µg/mL; in the assay on Enterobacter cloacae, 1 µg/mL; with Haemophilus influenzae it was 0.03 µg/mL; with Klebsiella it was 0.015 µg/mL; against Pseudomonas aeruginosa [1], 64 µg/mL; against Pseudomonas aeruginosa [2], 8 µg/mL. The MIC was 0.25 µg/mL in assay [3]; 0.5 µg/mL in [4]; 4 µg/mL in the assay with Staphylococcus aureus [5]; 4 µg/mL in the assay on Staphylococcus aureus [6]; under 0.008 µg/mL against Streptococcus pneumoniae; 0.125 µg/mL in the assay on Staphylococcus aureus [7].

As for `Nc1nc(/C(=N\OCCF)C(=O)N[C@@H]2C(=O)N3C(C(=O)[O-])=C(Sc4nc5ccccc5[nH]4)CC[C@H]23)cs1.[Na+]`, the MIC came to 0.125 µg/mL with Escherichia coli; 1 µg/mL in the assay with Enterobacter cloacae; 0.015 µg/mL in the assay on Haemophilus influenzae; 0.015 µg/mL with Klebsiella; 32 µg/mL in the assay with Pseudomonas aeruginosa [1]; 32 µg/mL with Pseudomonas aeruginosa [2]. The MIC in assay [3] is 2 µg/mL; in [4] it was 8 µg/mL; in the assay with Staphylococcus aureus [5], 16 µg/mL; against Staphylococcus aureus [6], 128 µg/mL; against Streptococcus pneumoniae, under 0.008 µg/mL; against Staphylococcus aureus [7], 2 µg/mL.

As to `Nc1nc(/C(=N\OCCF)C(=O)N[C@@H]2C(=O)N3C(C(=O)[O-])=C(SC4=NCCS4)CC[C@H]23)cs1.[Na+]`, the MIC in the assay with Escherichia coli is 0.125 µg/mL; against Enterobacter cloacae, 1 µg/mL; with Haemophilus influenzae, under 0.008 µg/mL; in the assay with Klebsiella, 0.015 µg/mL; against Pseudomonas aeruginosa [1], 64 µg/mL; against Pseudomonas aeruginosa [2] it was under 128 µg/mL. The MIC is 1 µg/mL in [3]; 2 µg/mL in assay [4]; 16 µg/mL against Staphylococcus aureus [5]; 64 µg/mL against Staphylococcus aureus [6]; under 0.008 µg/mL in the assay on Streptococcus pneumoniae; 0.5 µg/mL with Staphylococcus aureus [7].

Turning to `Nc1nc(/C(=N\OCCF)C(=O)N[C@@H]2C(=O)N3C(C(=O)[O-])=C(Sc4ncccn4)CC[C@H]23)cs1.[Na+]`, the MIC was 0.125 µg/mL with Escherichia coli; 1 µg/mL in the assay with Enterobacter cloacae; 0.03 µg/mL against Haemophilus influenzae; 0.015 µg/mL against Klebsiella; over 128 µg/mL in the assay on Pseudomonas aeruginosa [1]; over 128 µg/mL in the assay with Pseudomonas aeruginosa [2]. The MIC in assay [3] was determined as 4 µg/mL; in assay [4], 8 µg/mL; with Staphylococcus aureus [5] it was 32 µg/mL; with Staphylococcus aureus [6], 128 µg/mL; against Streptococcus pneumoniae, 0.03 µg/mL; in the assay on Staphylococcus aureus [7], 2 µg/mL.

On to `Nc1nc(/C(=N\OCCF)C(=O)N[C@@H]2C(=O)N3C(C(=O)[O-])=C(Sc4cccc[n+]4[O-])CC[C@H]23)cs1.[Na+]`, for which the MIC with Escherichia coli is 0.125 µg/mL; with Enterobacter cloacae, 2 µg/mL; against Haemophilus influenzae, 0.015 µg/mL; against Klebsiella, 0.06 µg/mL; in the assay on Pseudomonas aeruginosa [1], 128 µg/mL; in the assay with Pseudomonas aeruginosa [2], over 128 µg/mL. For the same compound, the MIC is 2 µg/mL in [3]; 8 µg/mL in [4]; 64 µg/mL in the assay with Staphylococcus aureus [5]; 128 µg/mL against Staphylococcus aureus [6]; 0.15 µg/mL with Streptococcus pneumoniae; 2 µg/mL against Staphylococcus aureus [7].

In the case of `C[n+]1ccc2sc(SC3=C(C(=O)[O-])N4C(=O)[C@@H]([N-]C(=O)/C(=N/OCCF)c5csc(N)n5)[C@H]4CC3)nc2c1.[Na+]`, the MIC in the assay with Escherichia coli came out at 0.25 µg/mL; in the assay with Enterobacter cloacae, 4 µg/mL; against Haemophilus influenzae, 0.06 µg/mL; in the assay with Klebsiella, 0.03 µg/mL; against Pseudomonas aeruginosa [1], 32 µg/mL; against Pseudomonas aeruginosa [2], 32 µg/mL. Moreover, the MIC in [3] was 2 µg/mL; in assay [4] it was 8 µg/mL; in the assay with Staphylococcus aureus [5] it was 16 µg/mL; against Staphylococcus aureus [6], 128 µg/mL; against Streptococcus pneumoniae, 0.15 µg/mL; in the assay on Staphylococcus aureus [7], 2 µg/mL.

On to `Nc1nc(/C(=N\OCCF)C(=O)N[C@@H]2C(=O)N3C(C(=O)[O-])=C(Sc4nc5cncnc5s4)CC[C@H]23)cs1.[Na+]`, for which the MIC against Escherichia coli stood at 0.25 µg/mL; against Enterobacter cloacae, 2 µg/mL; against Haemophilus influenzae it was 0.03 µg/mL; against Klebsiella, 0.03 µg/mL; in the assay with Pseudomonas aeruginosa [1] it was 128 µg/mL; with Pseudomonas aeruginosa [2] it was 128 µg/mL. The MIC in assay [3] was 0.5 µg/mL; in [4] it was 2 µg/mL; against Staphylococcus aureus [5] it was 8 µg/mL; against Staphylococcus aureus [6], 16 µg/mL; against Streptococcus pneumoniae, under 0.008 µg/mL; with Staphylococcus aureus [7], 0.125 µg/mL.

Turning to `CCOc1nn(C)c(SC2=C(C(=O)[O-])N3C(=O)[C@@H](NC(=O)/C(=N/OCCF)c4csc(N)n4)[C@H]3CC2)nc1=O.[Na+]`, the MIC was 0.5 µg/mL against Escherichia coli; 2 µg/mL against Enterobacter cloacae; 0.03 µg/mL with Haemophilus influenzae; 0.06 µg/mL against Klebsiella; over 128 µg/mL in the assay on Pseudomonas aeruginosa [1]; 128 µg/mL against Pseudomonas aeruginosa [2]. In addition, the MIC is 4 µg/mL in assay [3]; 16 µg/mL in [4]; 128 µg/mL in the assay on Staphylococcus aureus [5]; over 128 µg/mL against Staphylococcus aureus [6]; 0.03 µg/mL in the assay with Streptococcus pneumoniae; 0.5 µg/mL in the assay with Staphylococcus aureus [7].

In the case of `CCOC(=O)c1csc(SC2=C(C(=O)[O-])N3C(=O)[C@@H](NC(=O)/C(=N/OCCF)c4csc(N)n4)[C@H]3CC2)n1.[Na+]`, the MIC against Escherichia coli is 0.5 µg/mL; with Enterobacter cloacae it was 4 µg/mL; in the assay on Haemophilus influenzae it was 0.06 µg/mL; in the assay on Klebsiella, 0.06 µg/mL; against Pseudomonas aeruginosa [1] it was 128 µg/mL; with Pseudomonas aeruginosa [2], over 128 µg/mL. The MIC in assay [3] is 2 µg/mL; in assay [4] it was 2 µg/mL; against Staphylococcus aureus [5], 16 µg/mL; against Staphylococcus aureus [6], 32 µg/mL; in the assay on Streptococcus pneumoniae, under 0.008 µg/mL; with Staphylococcus aureus [7], 1 µg/mL.

`Nc1nc(/C(=N\OCCF)C(=O)N[C@@H]2C(=O)N3C(C(=O)[O-])=C(Sc4nc5ccncc5s4)CC[C@H]23)cs1.[Na+]`: the MIC with Escherichia coli is 0.25 µg/mL; with Enterobacter cloacae, 2 µg/mL; against Haemophilus influenzae, 0.015 µg/mL; with Klebsiella, 0.06 µg/mL; against Pseudomonas aeruginosa [1], 64 µg/mL; in the assay on Pseudomonas aeruginosa [2], over 128 µg/mL. In addition, the MIC is 0.5 µg/mL in assay [3]; 2 µg/mL in assay [4]; 4 µg/mL in the assay with Staphylococcus aureus [5]; 8 µg/mL in the assay on Staphylococcus aureus [6]; under 0.008 µg/mL against Streptococcus pneumoniae; 0.125 µg/mL in the assay on Staphylococcus aureus [7].

As for `Nc1nc(/C(=N\OCCF)C(=O)N[C@@H]2C(=O)N3C(C(=O)[O-])=C(Sc4nccnc4N)CC[C@H]23)cs1.[Na+]`, the MIC in the assay with Escherichia coli is 0.125 µg/mL; with Enterobacter cloacae it was 1 µg/mL; against Haemophilus influenzae, 0.015 µg/mL; against Klebsiella, 0.015 µg/mL; against Pseudomonas aeruginosa [1], 16 µg/mL; against Pseudomonas aeruginosa [2], 128 µg/mL. For the same compound, the MIC in assay [3] is 1 µg/mL; in assay [4], 4 µg/mL; against Staphylococcus aureus [5], 32 µg/mL; in the assay on Staphylococcus aureus [6], over 128 µg/mL; in the assay on Streptococcus pneumoniae it was under 0.008 µg/mL; against Staphylococcus aureus [7] it was 0.5 µg/mL.

Take `Nc1nc(/C(=N\OCCF)C(=O)N[C@@H]2C(=O)N3C(C(=O)[O-])=C(Sc4snc5ccccc45)CC[C@H]23)cs1.[Na+]`: the MIC with Escherichia coli stood at 0.25 µg/mL; in the assay with Enterobacter cloacae, 0.5 µg/mL; in the assay with Haemophilus influenzae it was 0.03 µg/mL; in the assay with Klebsiella it was 0.03 µg/mL; in the assay on Pseudomonas aeruginosa [1], 16 µg/mL; against Pseudomonas aeruginosa [2], 32 µg/mL. Also, the MIC was 0.5 µg/mL in [3]; 2 µg/mL in assay [4]; 32 µg/mL against Staphylococcus aureus [5]; 64 µg/mL with Staphylococcus aureus [6]; under 0.008 µg/mL in the assay on Streptococcus pneumoniae; 0.125 µg/mL in the assay with Staphylococcus aureus [7].

With `Nc1nc(/C(=N\OCCF)C(=O)N[C@@H]2C(=O)N3C(C(=O)[O-])=C(Sc4nc5c(=O)[nH]c(=O)[nH]c5s4)CC[C@H]23)cs1.[Na+]`, the MIC is 0.06 µg/mL against Escherichia coli; 1 µg/mL in the assay with Enterobacter cloacae; under 0.008 µg/mL against Haemophilus influenzae; 0.06 µg/mL in the assay on Klebsiella; 64 µg/mL with Pseudomonas aeruginosa [1]; over 128 µg/mL against Pseudomonas aeruginosa [2]. Also, the MIC in assay [3] was 2 µg/mL; in [4], 8 µg/mL; with Staphylococcus aureus [5], 16 µg/mL; with Staphylococcus aureus [6], 128 µg/mL; against Streptococcus pneumoniae, under 0.008 µg/mL; against Staphylococcus aureus [7], 2 µg/mL.

With `Nc1nc(/C(=N\OCCF)C(=O)N[C@@H]2C(=O)N3C(C(=O)[O-])=C(Sc4nc5cccnc5s4)CC[C@H]23)cs1.[Na+]`, the MIC against Escherichia coli is 0.25 µg/mL; in the assay on Enterobacter cloacae, 2 µg/mL; against Haemophilus influenzae, 0.03 µg/mL; against Klebsiella, 0.03 µg/mL; against Pseudomonas aeruginosa [1] it was 64 µg/mL; in the assay with Pseudomonas aeruginosa [2], over 128 µg/mL. The MIC in [3] is 1 µg/mL; in assay [4], 4 µg/mL; in the assay with Staphylococcus aureus [5], 8 µg/mL; against Staphylococcus aureus [6], 16 µg/mL; in the assay on Streptococcus pneumoniae it was under 0.008 µg/mL; against Staphylococcus aureus [7], 0.25 µg/mL.

The values are drawn from ChEMBL document CHEMBL1127066, “Discovery and structure-activity relationship of a series of 1-carba-1-dethiacephems exhibiting activity against methicillin-resistant Staphylococcus aureus” (J Med Chem, 1993).
